Measurements from patent US20090023667A1 (priority 2005, published 2009).
Like-named read-outs stand apart in the source and are kept apart here.

Assays:
Format in all cases: in vivo
Pyricularia oryzae [1] = system: Pyricularia oryzae
Rhizoctonia solani [2] = assay: Test Example 5: control test on paddy rice sheath blight, submerged application; settings: submerged application of granule
Procedure: (§1) After 14 days from the treatment, Rhizoctonia solani cultured on a rice chaff/bran medium was inoculated on the basal of the rice plant. After 10 days from the inoculation, the extended lesion length of sheath blight of the whole stem was examined. The control value was calculated according to the following equation (3 replications).
(§2) Control Value=(1−average lesion length per a stem in the treated plot/average lesion length per a stem in the untreated plot)×100

Pyricularia oryzae [3] = system: Pyricularia oryzae; remark: listed apart in the source
Rhizoctonia solani [4] = assay: Test Example 4: control test on paddy rice sheath blight, spraying
Procedure: A compound solution of a prescribed concentration was sprayed on three 1/5000a rice pots (cultivar: Koshihikari; 4 leaf stage). After one day from the spraying, Rhizoctonia solani cultured on a rice chaff/bran medium was inoculated on the basal of the rice plant. After 10 days from the inoculation, the extended lesion length of sheath blight of the whole stem was examined. The control value was calculated according to the following equation (3 replications).
as §2

Pyricularia oryzae [5] = assay: whole plant or invertebrate
Rhizoctonia solani [6] = assay: Test Example 6: control test on paddy rice sheath blight, nursery box application; settings: nursery box application of granule
Procedure: as §1, with “30” for “14”
as §2

Pyricularia oryzae [7] = settings: rice blast, nursery box application of granule
[8] = rice blast, sprayed at 60 ppm active ingredient, lesions after 7 days
[9] = Pyricularia oryzae, 168 h, read-out: Control value

Cc1ccc(C(=O)NCC(NC(=O)OCCF)C(C)C)cc1 (stereo not drawn) [Compound 2]
Effect (class of control value) (Pyricularia oryzae [1]; in vivo): A (key: A: Not less than 80%; B: Not less than 50% to less than 80%; C: Less than 50%)

CNC(=O)/C(=N/OC)c1ccccc1Oc1ccccc1 [Metominostrobin, reference compound]
Control value (Rhizoctonia solani [2]; 150 gai/10a): 95 | Control value (Pyricularia oryzae [3]; rice blast, submerged application of granule, 150 gai/10a): 98

CC(C)C(CNC(=O)c1nc2ccc(F)cc2s1)NC(=O)OCC(F)(F)F (stereo not drawn) [Compound 37]
Control value (Rhizoctonia solani [4]; 60 ppm): 3 | Effect (class of control value) (Pyricularia oryzae [1]; in vivo): A (key: A: Not less than 80%; B: Not less than 50% to less than 80%; C: Less than 50%) | Control value (Pyricularia oryzae [5]; 60 ppm): 98

CSCC(C)OC(=O)NC(CNC(=O)c1ccc(C)cc1)C(C)C (stereo not drawn) [Formula (17), reference compound]
Effect (class of control value) (Pyricularia oryzae [1]; [8]): C (Less than 50%)

Cc1ccc(C(=O)NCC(NC(=O)OCC(F)(F)F)C(C)(C)C)cc1 (stereo not drawn) [Compound 24]
Control value (Rhizoctonia solani [4]; 60 ppm): 2 | Effect (class of control value) (Pyricularia oryzae [1]; in vivo): A (key: A: Not less than 80%; B: Not less than 50% to less than 80%; C: Less than 50%) | Control value (Rhizoctonia solani [6]; 7.5 gai/box): 4 | Control value (Rhizoctonia solani [2]; 225 gai/10a): 4 | Control value (Pyricularia oryzae [5]; 60 ppm): 97

CCOP(=O)(Sc1ccccc1)Sc1ccccc1 [EDDP, reference compound]
Control value (Pyricularia oryzae [5]; 300 ppm): 97

Cc1ccccc1C(=O)Nc1cccc(OC(C)C)c1 [Mepronil, reference compound]
Control value (Rhizoctonia solani [4]; 750 ppm): 94

CC(C)Oc1cccc(NC(=O)c2ccccc2C(F)(F)F)c1 [Flutolanil, reference compound]
Control value (Rhizoctonia solani [4]; 250 ppm): 94 | Control value (Rhizoctonia solani [2]; 210 gai/10a): 96

CC(=O)Oc1c(C)c(C)nc2c(F)cc(C(C)(C)C)cc12 [Compound 105, reference compound]
pest or weed control at 300 ppm (Pyricularia oryzae [5]; [9]): 98%

Cc1ccc(C(=O)NCC(NC(=O)OCCC(F)(F)C(F)(F)C(F)(F)C(F)(F)F)C(C)C)cc1 (stereo not drawn) [Compound 14]
Effect (class of control value) (Pyricularia oryzae [1]; in vivo): B (key: A: Not less than 80%; B: Not less than 50% to less than 80%; C: Less than 50%)

OCC1=C[C@H](N[C@H]2C[C@H](CO)[C@@H](O[C@@H]3O[C@H](CO)[C@@H](O)[C@H](O)[C@H]3O)[C@H](O)[C@H]2O)[C@H](O)[C@@H](O)[C@@H]1O [Validamycin, reference compound]
Control value (Rhizoctonia solani [4]; 60 ppm): 94

Cc1ccc(C(=O)NC(CNC(=O)OCC(Cl)(Cl)Cl)C(C)C)cc1 (stereo not drawn) [Compound 7, N-(2,2,2-trichloroethyloxycarbonyl)-N′-(4-methylbenzoyl)-3-methyl-1,2-butanediamine]
Effect (class of control value) (Pyricularia oryzae [1]; [8]): A (Not less than 80%)

Cc1nc(C(F)(F)F)c(C(=O)Nc2c(Br)cc(OC(F)(F)F)cc2Br)s1 [Thifluzamide, reference compound]
Control value (Rhizoctonia solani [6]; 1 gai/box): 95 | Control value (Rhizoctonia solani [2]; 60 gai/10a): 95

Cc1ccc(C(=O)NCC(NC(=O)OC(CBr)CBr)C(C)C)cc1 (stereo not drawn) [Compound 11]
Effect (class of control value) (Pyricularia oryzae [1]; in vivo): B (key: A: Not less than 80%; B: Not less than 50% to less than 80%; C: Less than 50%)

Cc1ccc(C(=O)NCC(NC(=O)Oc2ccc3ccccc3c2)C(C)C)cc1 (stereo not drawn) [Formula (16), reference compound]
Effect (class of control value) (Pyricularia oryzae [1]; [8]): C (Less than 50%)

O=C1OCc2c(Cl)c(Cl)c(Cl)c(Cl)c21 [Fthalide, reference compound]
pest or weed control at 300 ppm (Pyricularia oryzae [5]; [9]): 97%

CO/C=C(/C(=O)OC)c1ccccc1Oc1cc(Oc2ccccc2C#N)ncn1 [Azoxystrobin, reference compound]
Control value (Rhizoctonia solani [4]; 80 ppm): 93

Cc1cccc2sc3nncn3c12 [Tricyclazole, reference compound]
Control value (Pyricularia oryzae [7]; 2 gai/box): 96 | pest or weed control at 200 ppm (Pyricularia oryzae [5]; [9]): 99%

C[C@@H](NC(=O)C(C#N)C(C)(C)C)c1ccc(Cl)cc1Cl (stereo partly drawn) [Diclocymet]
Control value (Pyricularia oryzae [7]; 1.5 gai/box): 97

Cc1ccc(C(=O)NCC(NC(=O)OCCCl)C(C)C)cc1 (stereo not drawn) [Compound 3]
Effect (class of control value) (Pyricularia oryzae [1]; in vivo): A (key: A: Not less than 80%; B: Not less than 50% to less than 80%; C: Less than 50%)

Cc1c(Cl)cc(-c2ccc(=O)[nH]n2)cc1Cl [Diclomezine, reference compound]
Control value (Rhizoctonia solani [4]; 20 ppm): 95

Cc1ccc(C(=O)NCC(NC(=O)OCC(F)(F)F)C2CCCC2)cc1 (stereo not drawn) [Compound 36]
Effect (class of control value) (Pyricularia oryzae [1]; in vivo): A (key: A: Not less than 80%; B: Not less than 50% to less than 80%; C: Less than 50%)

Cc1ccc(C(=O)NCC(NC(=O)OC(C)C(F)(F)F)C(C)C)cc1 (stereo not drawn) [Compound 30]
Effect (class of control value) (Pyricularia oryzae [1]; in vivo): A (key: A: Not less than 80%; B: Not less than 50% to less than 80%; C: Less than 50%) | Control value (Rhizoctonia solani [2]; 225 gai/10a): 7 | Control value (Pyricularia oryzae [3]; in vivo): 97

C=CCOC1=NS(=O)(=O)c2ccccc21 [Probenazole]
Control value (Pyricularia oryzae [7]; 12 gai/box): 98

C/C(=N/Nc1nc(C)cc(C)n1)c1ccccc1C [Ferimzone, reference compound]
pest or weed control at 300 ppm (Pyricularia oryzae [5]; [9]): 98%

C[C@H]1O[C@H](O[C@H]2[C@H](O)[C@@H](O)[C@@H](O)[C@H](O)[C@@H]2O)[C@@H](N)C[C@@H]1NC(=N)C(=O)O [Kasugamycin, reference compound]
Control value (Pyricularia oryzae [5]; rice blast, spraying, 20 ppm): 97

CCC(C)C(CNC(=O)c1ccc(C)cc1)NC(=O)OCC(F)(F)F (stereo not drawn) [Compound 25]
Effect (class of control value) (Pyricularia oryzae [1]; in vivo): A (key: A: Not less than 80%; B: Not less than 50% to less than 80%; C: Less than 50%) | Control value (Rhizoctonia solani [2]; 225 gai/10a): 5 | Control value (Pyricularia oryzae [3]; in vivo): 95

Cc1ccc(C(=O)NCC(NC(=O)OCCBr)C(C)C)cc1 (stereo not drawn) [Compound 4]
Effect (class of control value) (Pyricularia oryzae [1]; in vivo): A (key: A: Not less than 80%; B: Not less than 50% to less than 80%; C: Less than 50%)

CC(C)C(CNC(=O)c1nc2ccccc2s1)NC(=O)OCC(F)(F)F (stereo not drawn) [Compound 38]
Control value (Rhizoctonia solani [4]; 60 ppm): 3 | Effect (class of control value) (Pyricularia oryzae [1]; in vivo): A (key: A: Not less than 80%; B: Not less than 50% to less than 80%; C: Less than 50%) | Control value (Pyricularia oryzae [5]; 60 ppm): 96

Cc1ccc(C(=O)NCC(NC(=O)OC2CCCCC2F)C(C)C)cc1 (stereo not drawn) [Compound 16]
Effect (class of control value) (Pyricularia oryzae [1]; in vivo): A (key: A: Not less than 80%; B: Not less than 50% to less than 80%; C: Less than 50%)

Cc1ccc(C(=O)NCC(NC(=O)OC(CF)CF)C(C)C)cc1 (stereo not drawn) [Compound 9]
Effect (class of control value) (Pyricularia oryzae [1]; in vivo): A (key: A: Not less than 80%; B: Not less than 50% to less than 80%; C: Less than 50%)

CSC(=O)c1cccc2nnsc12 [Acibenzolar-S-methyl]
Control value (Pyricularia oryzae [7]; 1 gai/box): 96

Cc1ccc(C(=O)NCC(NC(=O)OCCCCl)C(C)C)cc1 (stereo not drawn) [Compound 10]
Effect (class of control value) (Pyricularia oryzae [1]; in vivo): A (key: A: Not less than 80%; B: Not less than 50% to less than 80%; C: Less than 50%)

CC(C)(C)C(CNC(=O)c1cc2ccccc2o1)NC(=O)OCC(F)(F)F (stereo not drawn) [Compound 31]
Control value (Rhizoctonia solani [4]; 60 ppm): 4 | Effect (class of control value) (Pyricularia oryzae [1]; in vivo): A (key: A: Not less than 80%; B: Not less than 50% to less than 80%; C: Less than 50%) | Control value (Rhizoctonia solani [6]; 7.5 gai/box): 2 | Control value (Rhizoctonia solani [2]; 225 gai/10a): 4 | Control value (Pyricularia oryzae [5]; 60 ppm): 96

CC(C)CC(C)c1sccc1NC(=O)c1cn(C)nc1C(F)(F)F (racemic) [Penthiopyrad, (RS)—N-[2-(1,3-dimethylbutyl)thiophene-3-yl]-1-methyl-3-trifluoromethyl-1H-pirazole-4-carboxamide, reference compound]
pest or weed control at 200 ppm (Pyricularia oryzae [5]; [9]): 95%

O=C(Nc1ccccc1)N(Cc1ccc(Cl)cc1)C1CCCC1 [Pencycuron, reference compound]
Control value (Rhizoctonia solani [4]; 167 ppm): 95

CC(C)OC(=O)C(C(=O)OC(C)C)=C1SCCS1 [Isoprothiolane, reference compound]
pest or weed control at 400 ppm (Pyricularia oryzae [5]; [9]): 98%

Cc1nn(C)c(Cl)c1C(=O)Nc1cccc2c1C(C)OC2(C)C (stereo not drawn) [Furametpyr, reference compound]
Control value (Rhizoctonia solani [4]; 100 ppm): 95 | Control value (Rhizoctonia solani [6]; 2 gai/box): 96 | Control value (Rhizoctonia solani [2]; 45 gai/10a): 96

Cc1ccc(C(=O)NCC(NC(=O)OCC(F)(F)C(F)(F)C(F)(F)F)C(C)C)cc1 (stereo not drawn) [Compound 13]
Effect (class of control value) (Pyricularia oryzae [1]; in vivo): A (key: A: Not less than 80%; B: Not less than 50% to less than 80%; C: Less than 50%)

Cc1ccc(C(=O)NC(CNC(=O)OC(C(F)(F)F)C(F)(F)F)C(C)C)cc1 (stereo not drawn) [Compound 8, N-(1,1,1,3,3,3-hexafluoro-2-propyloxycarbonyl)-N′-(4-methylbenzoyl)-3-methyl-1,2-butanediamine]
Effect (class of control value) (Pyricularia oryzae [1]; [8]): A (Not less than 80%)

N#Cc1ccccc1NC(=O)c1snc(Cl)c1Cl [Compound 104]
Control value (Pyricularia oryzae [7]; 1.5 gai/box): 98

CC(CNC(=O)c1cc2ccccc2o1)NC(=O)OCC(F)(F)F (stereo not drawn) [Compound 40]
Control value (Rhizoctonia solani [4]; 60 ppm): 4 | Effect (class of control value) (Pyricularia oryzae [1]; in vivo): A (key: A: Not less than 80%; B: Not less than 50% to less than 80%; C: Less than 50%) | Control value (Pyricularia oryzae [5]; 60 ppm): 97

Cc1ccc(C(=O)NCC(NC(=O)OCCI)C(C)C)cc1 (stereo not drawn) [Compound 5]
Effect (class of control value) (Pyricularia oryzae [1]; in vivo): A (key: A: Not less than 80%; B: Not less than 50% to less than 80%; C: Less than 50%)

CCC(CC)C(CNC(=O)c1ccc(C)cc1)NC(=O)OCC(F)(F)F (stereo not drawn) [Compound 39]
Effect (class of control value) (Pyricularia oryzae [1]; in vivo): A (key: A: Not less than 80%; B: Not less than 50% to less than 80%; C: Less than 50%)

Cc1ccc(NC(=O)c2snnc2C)cc1Cl [Tiadinil]
Control value (Pyricularia oryzae [7]; 6 gai/box): 95
